We go through 26 molecules from PubChem BioAssay (NCI).

Common to all, as to test: NCI-60 cell line screen, 48 h
Assay [1] has as its system SK-OV-3 ovarian.
The subject of assay [2] is U251 CNS.
For assay [3], the system named is KM12 colon.
Assay [4] concerns OVCAR-8 ovarian.
Assay [5] has as its system SNB-75 CNS.
Assay [6] has as its system HOP-92 NSCLC.
Assay [7] deals with HOP-62 NSCLC.
Assay [8] has as its system IGROV1 ovarian.
The test system of assay [9] is SW-620 colon.
The subject of assay [10] is K-562 leukemia.

The structures appear in SMILES notation.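 All cell lines were grown in 96-well plates and treated with compound for 48 hours. At the GI50, growth is halved. TGI marks complete inhibition of growth.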

Regarding `O=C(Nc1cccc([N+](=O)[O-])c1)C(=O)C(C(=O)c1ccccc1F)C1OC(=O)C2C=CC=CC21` (stereo not drawn), the TGI in [1] was > 100 µM; in [2] it was 77.7 µM; in assay [3], > 100 µM; in assay [4], > 100 µM; in [5], 84.9 µM; in assay [6], > 100 µM. The TGI in assay [7], in assay [8], in assay [9] and in assay [10] was > 100 µM in each case.
Take `C/C=C1/CN2CCC34c5ccccc5N(C)C23C2CC1C4(C(=O)OC)C(O)O2` (stereo not drawn): the TGI in assay [1], in assay [2], in [3], in [4], in assay [5] and in assay [6] was > 100 µM throughout. For the same molecule, the TGI in assay [7], in assay [8], in assay [9] and in [10] was > 100 µM in each case.
On to `NC(=O)Nc1ccc(C(=O)NCCCNC(=O)c2ccc(NC(N)=O)cc2)cc1`, for which the TGI in [2], in assay [3], in assay [4], in assay [5], in assay [6] and in [7] was > 100 µM each time. In addition, the TGI in [8], in assay [9] and in [10] was > 100 µM in each case.
On to `Cc1c(NC(=O)c2cc([N+](=O)[O-])cc([N+](=O)[O-])c2)c(=O)n(-c2ccccc2)n1C`, for which the TGI in assay [1], in assay [2], in assay [3], in assay [4], in [6] and in assay [7] was > 100 µM throughout. For the same molecule, the TGI in [8], in assay [9] and in assay [10] was > 100 µM in each case.
In the case of `O=C(Nc1sccc1S(=O)(=O)c1ccc(Cl)cc1)c1ccccc1`, the TGI in assay [1], in [2], in assay [3], in [4], in assay [5] and in assay [6] was > 100 µM in each case. For the same molecule, the TGI in [7], in [8], in [9] and in assay [10] was > 100 µM each time.
For `c1ccc(CCN2CCOCC2)nc1`, the TGI in [1], in assay [2], in assay [3], in assay [4], in assay [6] and in assay [7] was > 100 µM each time. The TGI in [8], in [9] and in [10] was > 100 µM each time.
For `Nc1cccc2c1C1=NNC(=O)CC1C2` (stereo not drawn), the TGI in [1] is > 100 µM; in [2], > 100 µM; in assay [3], > 100 µM; in assay [4] it was > 100 µM; in assay [5], > 100 µM; in [6], 4.46 µM. Besides, the TGI in assay [7], in assay [8], in assay [9] and in assay [10] was > 100 µM each time.
With `O=C1C(c2c(O)[nH]c3ccccc23)=Nc2ccc(Br)cc21`, the TGI in assay [1] is > 100 µM; in assay [2], 48 µM; in assay [3], > 100 µM; in assay [4], 49.4 µM; in assay [5], 34.9 µM; in [6] it was 50.4 µM. Moreover, the TGI in assay [7] is 74.1 µM; in assay [8], > 100 µM; in [9], > 100 µM; in assay [10], > 100 µM.
On to `CC(=O)N1CC(=O)NC1=S`, for which the TGI in [1], in assay [2], in assay [3], in [4], in [5] and in assay [6] was > 100 µM each time. Further, the TGI in assay [7], in [8], in assay [9] and in [10] was > 100 µM in each case.
As to `Cc1ccc([N+](=O)[O-])cc1S(=O)(=O)Nc1ccc(C2=NN(C(=O)c3ccccc3)C(c3cccs3)C2)cc1` (stereo not drawn), the TGI was 82.5 µM in assay [1]; > 100 µM in assay [2]; > 100 µM in assay [3]; > 100 µM in assay [4]; 67 µM in assay [5]; 55.3 µM in assay [6]. Further, the TGI in [7] is 78.3 µM; in [8] it was > 100 µM; in assay [9] it was > 100 µM; in [10], > 100 µM.
Regarding `COc1c(O)c(O)c2c(c1O)C(=O)c1cc(C)cc(O)c1C2=O`, the TGI in assay [1] was > 80 µM; in [2], > 100 µM; in assay [3], > 100 µM; in [4], > 83.3 µM; in assay [5] it was > 86.5 µM; in [6] it was > 100 µM. Also, the TGI in assay [7] is > 100 µM; in assay [8] it was > 100 µM; in assay [9], > 100 µM; in [10] it was 98.5 µM.
For `N#CCCOCN(CO)c1nc(N(CO)COCCC#N)nc(N(CO)COCCC#N)n1`, the TGI is > 100 µM in [1]; > 100 µM in assay [2]; > 100 µM in [3]; 34.7 µM in assay [4]; 45.8 µM in assay [6]; > 100 µM in [7]. For the same molecule, the figures for the TGI in assay [8], in assay [9] and in assay [10] were > 100 µM, 29.5 µM and 61.2 µM, respectively.
On to `CCOC(=O)C(=O)Nc1c(CC)cccc1C(C)CC` (stereo not drawn), for which the TGI in [1], in assay [2], in assay [3], in assay [4], in assay [5] and in assay [6] was > 100 µM each time. Moreover, the TGI in [7], in assay [8], in [9] and in assay [10] was > 100 µM each time.
In the case of `Cc1nc2c(O)cc3c4c(n(Cc5ccccc5)c3c2nc1C)C(=O)CCC4`, the TGI was 69.6 µM in assay [1]; 64 µM in assay [2]; > 100 µM in [3]; 52.6 µM in assay [4]; 74 µM in assay [6]; 39.9 µM in [7]. Further, the TGI in assay [9] and in assay [10] was > 100 µM in each case.
For the molecule `COc1ccccc1/C=C/c1c(N)ncnc1Nc1cccc(Cl)c1`, the TGI in assay [2] is 34.4 µM; in assay [3] it was > 100 µM; in assay [4], > 100 µM; in [5], 23.6 µM; in assay [6], 0.588 µM; in assay [7] it was 40 µM. Further, the TGI is 27.7 µM in assay [8], > 100 µM in [9] and > 100 µM in [10].
As for `Cc1ccc2ccc3ccc(C)nc3c2n1`, the TGI in [1], in assay [2], in assay [3], in assay [4], in [5] and in assay [6] was > 100 µM each time. Besides, the TGI in assay [7], in assay [8], in [9] and in [10] was > 100 µM throughout.
`C=Cc1cc(OC)c2c(c1)c(=O)oc1c2cc(OC)c2c(O)ccc(C3OC(C)C(O)C(C)(O)C3O)c21` (stereo not drawn): the GI50 in assay [1] is 0.000565 µM; in assay [2], 0.000187 µM; in [4], 0.000476 µM; in assay [5], 0.00041 µM; in assay [6], 0.000215 µM; in [7], 9.67e-05 µM. In addition, the GI50 in [8] is 0.00143 µM; in assay [9] it was 0.000502 µM; in [10], 0.00037 µM. Further, the figures for the TGI in assay [6], in assay [8] and in assay [10] were 0.24 µM, 1.08 µM and 0.947 µM, respectively.
Regarding `O=C1C(=c2cc3c(c4ccccc24)=NC24CCCCC2C(c2ccccc2)C=C(c2ccccc2)N34)C(=O)c2ccccc21` (stereo not drawn), the TGI in [1], in assay [2], in assay [3], in [4], in [5] and in assay [6] was > 100 µM throughout. In addition, the TGI in assay [7], in [8], in assay [9] and in assay [10] was > 100 µM throughout.
With `CN=C(N)/N=C(\N)Nc1cc2ccccc2c2ccccc12`, the TGI was found to be 32.9 µM in [1]; 28.5 µM in assay [2]; 34.6 µM in assay [3]; 33.8 µM in [4]; 27.6 µM in assay [5]; 40.8 µM in assay [6]. Further, the TGI in assay [7] was found to be 33.4 µM; in assay [8], 35.5 µM; in [9], 34 µM; in [10], 44.5 µM.
Regarding `CSc1ccc(-c2cc(-c3nc4ccccc4[nH]3)nc(N)c2C#N)cc1`, the TGI in assay [1] was > 100 µM; in assay [3], 71.2 µM; in assay [4], > 100 µM; in assay [5] it was 57.8 µM; in [6], 42.9 µM; in [7], 42.1 µM. Also, the TGI was 55.9 µM in [8], > 100 µM in assay [9] and 58.6 µM in assay [10].
As to `C[C@H](N[C@H]1CCC[C@]1(O)C#Cc1ccc2c(c1)OCO2)c1ccccc1`, the TGI in assay [1], in [2], in assay [3], in assay [4], in [5] and in assay [6] was > 25 µM in each case. The TGI in [7], in [8] and in assay [10] was > 25 µM each time.
With `CCCC1=C(C(=O)OCC)C(c2ccccc2OC)C(C#N)=C(N)O1` (stereo not drawn), the GI50 in assay [1] is > 100 µM; in [2] it was 44.7 µM; in assay [3], 21.1 µM; in assay [4], 43.8 µM; in assay [5] it was 32.2 µM; in assay [6], 37.7 µM. Besides, the GI50 in [7] is > 100 µM; in [8] it was 14.7 µM; in assay [9], 27.8 µM; in assay [10], 31.9 µM. Also, the TGI in [1], in assay [2], in assay [3], in [4], in assay [5] and in [6] was > 100 µM each time. Besides, the TGI was > 100 µM in assay [7], 36.4 µM in assay [8], > 100 µM in [9] and > 100 µM in [10].
Take `C[C@@H](CO)C1=CC(C#C[Si](C)(C)C)N(C(=O)Oc2ccccc2)c2ccccc21` (stereo partly drawn): the TGI stood at 56.3 µM in assay [1]; 35.8 µM in assay [2]; 34.1 µM in assay [3]; 35 µM in assay [4]; 36.1 µM in assay [5]; 24.6 µM in assay [6]. The TGI in assay [7] is 30 µM; in [8], 36.4 µM; in assay [9] it was > 100 µM; in assay [10], 95.5 µM.
On to `O=C1/C(=C/c2ccc(Cl)cc2)N=C(c2ccccc2)N1c1nc2c(Cl)cc(Cl)cc2s1`, for which the TGI in assay [1] is > 100 µM; in assay [2] it was 50.9 µM; in assay [3] it was > 100 µM; in [4], > 100 µM; in [5] it was 64.9 µM; in [6], 71.6 µM. Besides, the TGI in [7], in assay [8], in assay [9] and in [10] was > 100 µM each time.
As to `O=C(NCCNc1nccc(-c2c(-c3cccc(O)c3)nc3sccn23)n1)Nc1cccc(C(F)(F)F)c1`, the GI50 in assay [2] was 4.95 µM; in assay [3] it was 2.78 µM; in assay [4], 3.56 µM; in assay [5] it was 2.5 µM; in [6], 2.19 µM; in assay [7] it was 8.33 µM. Besides, the figures for the GI50 in assay [8], in assay [9] and in [10] were 3.48 µM, 3.84 µM and 3.42 µM, respectively. The TGI in [2] was determined as 23.6 µM; in assay [3], 6.98 µM; in [4], 11 µM; in [5], 12.7 µM; in assay [6] it was 9.38 µM; in assay [7], 23.4 µM. Further, the TGI in [8] came out at 13.1 µM; in assay [9], 13.4 µM; in assay [10] it was 57.1 µM.
Regarding `CNS(=O)(=O)c1ccc2[nH]c(O)c(C3=Nc4ccccc4C3=O)c2c1`, the TGI in assay [1] is > 100 µM; in assay [2] it was 39.8 µM; in [5], > 100 µM; in assay [7] it was > 100 µM; in assay [8], > 100 µM; in assay [9] it was > 100 µM. Moreover, the TGI in assay [10] is > 100 µM.
